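Results reflect a 48-hour exposure of cells in 96-well plates to compound at five concentrations. TGI denotes the concentration required for complete inhibition of growth.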
What was measured:
Experiment in all cases: NCI anticancer screen, dose series, 48 h
[1] = system: 786-0 renal
[2] = system: A498 renal
[3] = system: A549 NSCLC
[4] = system: ACHN renal
[5] = system: CAKI-1 renal
[6] = system: CCRF-CEM leukemia
[7] = system: COLO 205 colon
[8] = system: DU-145 prostate
[9] = system: EKVX NSCLC
[10] = system: HCC-2998 colon
[11] = system: HCT-15 colon
[12] = system: HL-60(TB) leukemia
[13] = system: HOP-62 NSCLC
[14] = system: HOP-92 NSCLC
[15] = system: HS 578T breast
[16] = system: HT29 colon
[17] = system: IGROV1 ovarian
[18] = system: K-562 leukemia
[19] = system: KM12 colon
[20] = system: M14 melanoma
[21] = system: MALME-3M melanoma
[22] = system: MCF7 breast
[23] = system: MDA-MB-231 breast
[24] = system: MDA-MB-435
[25] = system: MDA-N
[26] = system: MOLT-4 leukemia
[27] = system: NCI-H226 lung
[28] = system: NCI-H23 lung
[29] = system: NCI-H460 lung
[30] = system: NCI-H522 lung
[31] = system: NCI/ADR-RES ovarian
[32] = system: OVCAR-3 ovarian
[33] = system: OVCAR-4 ovarian
[34] = system: OVCAR-5 ovarian
[35] = system: OVCAR-8 ovarian
[36] = system: PC-3 prostate
[37] = system: RPMI-8226 leukemia
[38] = system: RXF 393 renal
[39] = system: SF-268 CNS
[40] = system: SF-295 CNS
[41] = system: SF-539 CNS
[42] = system: SK-MEL-2 melanoma
[43] = system: SK-MEL-28 melanoma
[44] = system: SK-MEL-5 melanoma
[45] = system: SK-OV-3 ovarian
[46] = system: SN12C renal
[47] = system: SNB-19 CNS
[48] = system: SNB-75 CNS
[49] = system: SR leukemia
[50] = system: SW-620 colon
[51] = system: T-47D breast
[52] = system: TK-10 renal
[53] = system: U251 CNS
[54] = system: UACC-257 melanoma
[55] = system: UACC-62 melanoma
[56] = system: UO-31 renal
[57] = system: HCT-116 colon
[58] = system: LOX IMVI melanoma
[59] = system: BT-549 breast

With `N#Cc1nc(CCC(C(=O)O)N2C(=O)c3ccccc3C2=O)oc1N` (centres undefined) the TGI [1] was > 100 µM, the TGI [2] was > 100 µM and the TGI [3] was > 100 µM. For the same compound, the TGI [4] was > 100 µM, the TGI [5] was > 100 µM and the TGI [6] was > 100 µM. The TGI [7] was > 100 µM, the TGI [8] was > 100 µM and the TGI [9] was > 100 µM. For the same compound, the TGI [10] was > 100 µM, the TGI [11] was > 100 µM and the TGI [12] was > 100 µM. For the same compound, the TGI [13] was > 100 µM, the TGI [14] was > 100 µM and the TGI [15] was > 100 µM. The TGI [16] was > 100 µM, the TGI [17] was > 100 µM and the TGI [18] was > 100 µM. For the same compound, the TGI [19] was > 100 µM, the TGI [20] was > 100 µM and the TGI [21] was > 100 µM. For the same compound, the TGI [22] was > 100 µM, the TGI [23] was > 100 µM and the TGI [24] was > 100 µM. The TGI [25] was > 100 µM, the TGI [26] was > 100 µM and the TGI [27] was > 100 µM. For the same compound, the TGI [28] was > 100 µM, the TGI [29] was > 100 µM and the TGI [30] was > 100 µM. The TGI [31] was > 100 µM, the TGI [32] was > 100 µM and the TGI [33] was > 100 µM. For the same compound, the TGI [34] was > 100 µM, the TGI [35] was > 100 µM and the TGI [36] was > 100 µM. The TGI [37] was > 100 µM, the TGI [38] was > 100 µM and the TGI [39] was > 100 µM. The TGI [40] was > 100 µM, the TGI [41] was > 100 µM and the TGI [42] was > 100 µM. For the same compound, the TGI [43] was > 100 µM, the TGI [44] was > 100 µM and the TGI [45] was > 100 µM. For the same compound, the TGI [46] was > 100 µM, the TGI [47] was > 100 µM and the TGI [48] was > 100 µM. The TGI [49] was > 100 µM, the TGI [50] was > 100 µM and the TGI [51] was > 100 µM. For the same compound, the TGI [52] was > 100 µM, the TGI [53] was > 100 µM and the TGI [54] was > 100 µM. The TGI [55] was > 100 µM and the TGI [56] was > 100 µM.

For `O=C1/C(=C/c2ccc(Cl)cc2)NC(=S)N1CN1CCCCC1`, the TGI [1] was > 100 µM, the TGI [2] was > 100 µM and the TGI [3] was > 100 µM. The TGI [4] was > 100 µM, the TGI [6] was 78.2 µM and the TGI [7] was 64.1 µM. For the same compound, the TGI [8] was > 100 µM, the TGI [9] was > 100 µM and the TGI [57] was > 100 µM. The TGI [11] was 58.2 µM, the TGI [13] was > 100 µM and the TGI [14] was > 100 µM. For the same compound, the TGI [15] was 62 µM, the TGI [16] was 29.3 µM and the TGI [17] was > 100 µM. For the same compound, the TGI [18] was > 100 µM, the TGI [19] was > 100 µM and the TGI [58] was > 100 µM. The TGI [20] was > 100 µM, the TGI [21] was 88.7 µM and the TGI [22] was 82.1 µM. For the same compound, the TGI [23] was > 100 µM, the TGI [24] was > 100 µM and the TGI [25] was > 100 µM. For the same compound, the TGI [26] was > 100 µM, the TGI [27] was > 100 µM and the TGI [28] was > 100 µM. For the same compound, the TGI [30] was 49.3 µM, the TGI [31] was 72 µM and the TGI [32] was > 100 µM. For the same compound, the TGI [34] was > 100 µM, the TGI [35] was > 100 µM and the TGI [36] was > 100 µM. For the same compound, the TGI [37] was 76.5 µM, the TGI [39] was 78.8 µM and the TGI [40] was > 100 µM. The TGI [42] was > 100 µM, the TGI [43] was > 100 µM and the TGI [44] was 97.4 µM. For the same compound, the TGI [45] was > 100 µM, the TGI [46] was > 100 µM and the TGI [47] was 68.7 µM. For the same compound, the TGI [48] was > 100 µM, the TGI [49] was > 100 µM and the TGI [50] was 45.3 µM. The TGI [52] was > 100 µM, the TGI [53] was > 100 µM and the TGI [55] was 54.4 µM. For the same compound, the TGI [56] was > 100 µM.

`O=C1OCC2=C1C(c1ccc(Cl)cc1)c1cc3c(cc1O2)OCO3` (centres undefined) was tested, and the TGI [1] was > 100 µM, the TGI [2] was > 100 µM and the TGI [3] was > 100 µM. The TGI [4] was > 100 µM, the TGI [5] was 10.8 µM and the TGI [6] was > 100 µM. For the same compound, the TGI [7] was > 100 µM, the TGI [8] was > 100 µM and the TGI [9] was > 100 µM. The TGI [10] was > 100 µM, the TGI [57] was > 34.6 µM and the TGI [11] was > 100 µM. For the same compound, the TGI [12] was 12.8 µM, the TGI [13] was > 35.4 µM and the TGI [14] was > 100 µM. For the same compound, the TGI [15] was > 72.2 µM, the TGI [16] was > 100 µM and the TGI [17] was > 100 µM. The TGI [18] was > 100 µM, the TGI [19] was > 100 µM and the TGI [58] was > 100 µM. The TGI [20] was > 100 µM, the TGI [21] was > 100 µM and the TGI [22] was > 27.2 µM. The TGI [23] was > 100 µM, the TGI [24] was 5.31 µM and the TGI [25] was 3.9 µM. The TGI [26] was 46.3 µM, the TGI [27] was > 100 µM and the TGI [28] was > 100 µM. The TGI [29] was > 100 µM, the TGI [31] was > 31.2 µM and the TGI [32] was > 100 µM. The TGI [33] was > 100 µM, the TGI [34] was > 100 µM and the TGI [35] was > 100 µM. For the same compound, the TGI [36] was > 100 µM, the TGI [37] was > 100 µM and the TGI [38] was > 100 µM. The TGI [39] was > 100 µM, the TGI [40] was > 100 µM and the TGI [41] was > 25.1 µM. The TGI [42] was > 100 µM, the TGI [43] was > 100 µM and the TGI [44] was > 100 µM. For the same compound, the TGI [45] was > 100 µM, the TGI [46] was > 100 µM and the TGI [47] was > 100 µM. For the same compound, the TGI [48] was > 100 µM, the TGI [49] was > 31.6 µM and the TGI [50] was > 100 µM. The TGI [51] was > 100 µM, the TGI [52] was > 100 µM and the TGI [54] was > 100 µM. The TGI [55] was > 100 µM and the TGI [56] was > 100 µM.

In the case of `O=C(O)CN1CCN2CCOCCN(CC1)CCN(CC(=O)O)CC2`, the TGI [1] is reported as > 100 µM, the TGI [2] is reported as > 100 µM and the TGI [3] is reported as > 100 µM. For the same compound, the TGI [4] was > 100 µM, the TGI [59] was > 100 µM and the TGI [5] was > 100 µM. The TGI [6] was > 100 µM, the TGI [7] was > 100 µM and the TGI [8] was > 100 µM. The TGI [9] was > 100 µM, the TGI [10] was > 100 µM and the TGI [57] was > 100 µM. For the same compound, the TGI [11] was > 100 µM, the TGI [12] was > 100 µM and the TGI [13] was > 100 µM. For the same compound, the TGI [14] was > 100 µM, the TGI [15] was > 100 µM and the TGI [16] was > 100 µM. The TGI [17] was > 100 µM, the TGI [18] was > 100 µM and the TGI [19] was > 100 µM. For the same compound, the TGI [58] was > 100 µM, the TGI [20] was > 100 µM and the TGI [21] was > 100 µM. The TGI [22] was > 100 µM, the TGI [23] was > 100 µM and the TGI [24] was > 100 µM. For the same compound, the TGI [26] was > 100 µM, the TGI [27] was > 100 µM and the TGI [28] was > 100 µM. The TGI [29] was > 100 µM, the TGI [30] was > 100 µM and the TGI [31] was > 100 µM. The TGI [32] was > 100 µM, the TGI [33] was > 100 µM and the TGI [34] was > 100 µM. For the same compound, the TGI [35] was > 100 µM, the TGI [36] was > 100 µM and the TGI [37] was > 100 µM. The TGI [38] was > 100 µM, the TGI [39] was > 100 µM and the TGI [40] was > 100 µM. For the same compound, the TGI [41] was > 100 µM, the TGI [42] was > 100 µM and the TGI [43] was > 100 µM. The TGI [44] was > 100 µM, the TGI [45] was > 100 µM and the TGI [46] was > 100 µM. For the same compound, the TGI [47] was > 100 µM, the TGI [48] was > 100 µM and the TGI [49] was > 100 µM. For the same compound, the TGI [50] was > 100 µM, the TGI [51] was > 100 µM and the TGI [52] was > 100 µM. The TGI [53] was > 100 µM, the TGI [54] was > 100 µM and the TGI [55] was > 100 µM. The TGI [56] was > 100 µM.
